EP3290412A1, “HIV-1 NUCLEOCAPSID INHIBITORS” (Università degli Studi di Siena, priority 2016, dated 2018)

Experiments:
[1] = target: T1, full length (1-55) HIV-1 NCp7 (Human immunodeficiency virus type 1 group M subtype B, UniProt P12493); assay: Electromobility Shift Assay (EMSA), competition for ssDNA binding; conditions: NCp7 300 nM, M13mp18 ssDNA; positive = >25% inhibition at 100µM
T1 construct: recombinant full length (1-55) HIV-1 NCp7 proteins; made in house
In short: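 Recombinant NL4-3 NCp7 (300 nM in the pre-mix) was combined with compound in 20 mM Tris-HCl pH 7.4, 2 mM MgCl2, 100 mM NaCl, 1 mM DTT, then M13mp18 ssDNA was added for 25 min at 37 °C. Complexes were run on 1% agarose/0.5x TBE and stained with SybrGold. IC50 is the concentration at which bound ssDNA migrated 50% of the bound–unbound distance (triplicate).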

[2] = system: Peripheral blood mononuclear cells (PBMC); type: cell-based; conditions: human, 7 days
In short: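 Cytotoxicity measured after 7 days of compound exposure by MTS conversion (OD 490 nm, 4 h). The cells were PHA-activated (5 µg/mL, 2 days) donor PBMC, cultured with 20 IU/mL IL-2 at 1x10^5 cells/well. TD50 is the dose killing 50% versus untreated control, read from the dose-mortality curve.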

Structure (SMILES)	EMSA screening results [1]	Proliferation assay PBMC TD50 [2] [nM]
C[C@H](NC(=O)c1nc(-c2ccc(C(=O)OCc3ccccc3)cn2)nc(O)c1O)C1CCCCC1 [Compound 70, benzyl (S)-6-(4-((1-cyclohexylethyl)carbamoyl)-5,6-dihydroxypyrimidin-2-yl)nicotinate]	Positive (A compound showing >25% inhibition when tested at 100µM concentration is considered as "positive")	500
C[C@H](NC(=O)c1nc(-c2cc(C(=O)OCc3ccccc3)ccn2)nc(O)c1O)C1CCCCC1 [Compound 71, benzyl (S)-2-(4-((1-cyclohexylethyl)carbamoyl)-5,6-dihydroxypyrimidin-2-yl)isonicotinate]	Positive (A compound showing >25% inhibition when tested at 100µM concentration is considered as "positive")	1420
C[C@H](NC(=O)c1nc(-c2cc3ccccc3cn2)nc(O)c1O)C1CCCCC1 [Compound 72, (S)-N-(1-cyclohexylethyl)-5,6-dihydroxy-2-(isoquinolin-3-yl)pyrimidine-4-carboxamide]	Positive (A compound showing >25% inhibition when tested at 100µM concentration is considered as "positive")	2270
Cc1cc(-c2nc(O)c(O)c(C(=O)N[C@H](C)C3CCCCC3)n2)nc2ccccc12 [Compound 73, (R)-N-(1-cyclohexylethyl)-5,6-dihydroxy-2-(4-methylquinolin-2-yl)pyrimidine-4-carboxamide]	Positive (A compound showing >25% inhibition when tested at 100µM concentration is considered as "positive")	5790
C[C@@H](NC(=O)c1nc(-c2cc(C(=O)NCc3ccccc3)ccn2)nc(O)c1O)C1CCCCC1 [Compound 74, (R)-2-(4-(benzylcarbamoyl)pyridin-2-yl)-N-(1-cyclohexylethyl)-5,6-dihydroxypyrimidine-4-carboxamide]	Positive (A compound showing >25% inhibition when tested at 100µM concentration is considered as "positive")	1680
C[C@H](NC(=O)c1nc(-c2ccc3ccccc3n2)nc(O)c1O)C1CCCCC1 [Compound 75, (S)-N-(1-cyclohexylethyl)-5,6-dihydroxy-2-(quinolin-2-yl)pyrimidine-4-carboxamide]	Positive (A compound showing >25% inhibition when tested at 100µM concentration is considered as "positive")	6900
Cc1ccnc(-c2nc(O)c(O)c(C(=O)NC3(C4CCCCC4)CC3)n2)c1 [Compound 84, N-(1-cyclohexylcyclopropyl)-5,6-dihydroxy-2-(4-methylpyridin-2-yl)pyrimidine-4-carboxamide]	Positive (A compound showing >25% inhibition when tested at 100µM concentration is considered as "positive")	3470
CC(NC(=O)c1nc(-c2nccc3ccccc23)nc(O)c1O)C1CCC(F)(F)CC1 (stereo not shown) [Compound 90, N-(1-(4,4-difluorocyclohexyl)ethyl)-5,6-dihydroxy-2-(isoquinolin-1-yl)pyrimidine-4-carboxamide]	Positive (A compound showing >25% inhibition when tested at 100µM concentration is considered as "positive")	4270
